Test results: patent US10787433B2, “Pyridazine derivatives as EAAT2 activators” (THE BRIGHAM AND WOMEN'S HOSPITAL, INC., priority 2016, dated 2020)

How the values were obtained:
EAAT2 [1] = test: EAAT2 Cellular Assay: EAAT2 protein levels in PA-EAAT2 cells by Western blot; assay type: cell-based, human; details: 24 hr, relative to DMSO controls
Procedure: All of the compounds were initially evaluated in PA-EAAT2 cells, a primary astrocyte stably expressing human EAAT2 mRNAs (Kong et al., J Clin Invest. 2014:1255-67). Cells were treated with compound at 0.25 μM, 0.5 μM, 1 μM, 2.5 μM, 5 μM, 10 μM, and 25 μM for 24 hr and then harvested for measuring EAAT2 protein levels by Western blot analysis.

EAAT2 [2] = test: EAAT2 expression in mouse brain after single oral dose (semi-quantitative Western blot); assay type: in vivo; details: mice, single dose by oral gavage, brains harvested at 24 h post-treatment
Procedure: Mice received a single dose of the compound (n=3/dose) by oral gavage. Brains were harvested at 24 h post-treatment. EAAT2 protein levels were analyzed by semi-quantitative Western blot analysis.

[3] = 10 μM (concentration that reaches maximum activity)
[4] = 2.5 μM (concentration that reaches maximum activity)
[5] = 5 μM (concentration that reaches maximum activity)
[6] = 0.25 μM (concentration that reaches maximum activity)
[7] = 0.5 μM (concentration that reaches maximum activity)
[8] = 1 μM (concentration that reaches maximum activity)

O=C(Nc1ccc(-c2cccnc2)nn1)c1ccc(F)cc1
Fold increase for EAAT2 at indicated concentration (maximum activity) (EAAT2 [1]; [3]): 2.1 ± 0.2 (10 μM) fold

c1ccc(-c2ccc(OCc3ncco3)nn2)nc1
Fold increase for EAAT2 at indicated concentration (maximum activity) (EAAT2 [1]; [4]): 1.9 ± 0.1 (2.5 μM) fold

CN(C)CCOc1ccc(-c2ccccn2)nn1
Fold increase for EAAT2 at indicated concentration (maximum activity) (EAAT2 [1]; [4]): 2.9 ± 0.2 (2.5 μM) fold

c1ccc(COc2ccc(-c3ccccn3)nn2)nc1
Fold increase for EAAT2 at indicated concentration (maximum activity) (EAAT2 [1]; [5]): 3.0 ± 0.1 (5 μM) fold

Cn1cncc1C(=O)Nc1ccc(-c2ccccn2)nn1
Fold increase for EAAT2 at indicated concentration (maximum activity) (EAAT2 [1]; [3]): 1.8± 0.2 (10 μM) fold

O=S(=O)(Nc1ccc(-c2ccccn2)nn1)c1ccccc1F
Fold increase for EAAT2 at indicated concentration (maximum activity) (EAAT2 [1]; [6]): 2.6 ± 0.2 (0.25 μM) fold

O=S(=O)(Nc1ccc(-c2ccccn2)nn1)c1ccc(F)cc1
Fold increase for EAAT2 at indicated concentration (maximum activity) (EAAT2 [1]; [7]): 2.4 ± 0.2 (0.5 μM) fold

CN1CCC(C(=O)Nc2ccc(-c3ccccn3)nn2)CC1
Fold increase for EAAT2 at indicated concentration (maximum activity) (EAAT2 [1]; [7]): 1.7 ± 0.1 (0.5 μM) fold

O=C(Nc1ccc(-c2ccccn2)nn1)c1ncccn1
Fold increase for EAAT2 at indicated concentration (maximum activity) (EAAT2 [1]; [7]): 1.5 ± 0.1 (0.5 μM) fold

O=C(Nc1ccc(-c2ccccn2)nn1)c1cccnn1
Fold increase for EAAT2 at indicated concentration (maximum activity) (EAAT2 [1]; [7]): 1.9 ± 0.1 (0.5 μM) fold

O=C(Nc1ccc(-c2ccccn2)nn1)c1cc(F)ccn1
Fold increase for EAAT2 at indicated concentration (maximum activity) (EAAT2 [1]; [6]): 1.7 ± 0.1 (0.25 μM) fold

O=C(Nc1ccc(-c2ccccn2)nn1)c1ccc(F)cn1
Fold increase for EAAT2 at indicated concentration (maximum activity) (EAAT2 [1]; [6]): 1.9 ± 0.2 (0.25 μM) fold

O=C(Nc1ccc(-c2ccccn2)nn1)c1cccc(F)n1
Fold increase for EAAT2 at indicated concentration (maximum activity) (EAAT2 [1]; [6]): 1.6 ± 0.1 (0.25 μM) fold

O=C(Nc1ccc(-c2ccccn2)nn1)c1ccc(F)c(Cl)c1
Fold increase for EAAT2 at indicated concentration (maximum activity) (EAAT2 [1]; [6]): 2.2 ± 0.4 (0.25 μM) fold

O=C(Nc1ccc(-c2ccccn2)nn1)c1ccccc1Cl
Fold increase for EAAT2 at indicated concentration (maximum activity) (EAAT2 [1]; [5]): 2.0 ± 0.2 (5 μM) fold

O=C(Nc1ccc(-c2ccccn2)nn1)c1cccc(Cl)c1
Fold increase for EAAT2 at indicated concentration (maximum activity) (EAAT2 [1]; [8]): 1.5 ± 0.1 (1 μM) fold

O=C(Nc1ccc(-c2ccccn2)nn1)c1ccc(Cl)cc1
Fold increase for EAAT2 at indicated concentration (maximum activity) (EAAT2 [1]; [8]): 1.5 ± 0.2 (1 μM) fold

COc1ccc(C(=O)Nc2ccc(-c3ccccn3)nn2)cc1
Fold increase for EAAT2 at indicated concentration (maximum activity) (EAAT2 [1]; [3]): 2.1 ± 0.2 (10 μM) fold

NC(=O)COc1ccc(-c2ccccn2)nn1
Fold increase for EAAT2 at indicated concentration (maximum activity) (EAAT2 [1]; [3]): 1.8 ± 0.2 (10 μM) fold

Cc1ccccc1NC(=O)COc1ccc(-c2ccccn2)nn1
Fold increase for EAAT2 at indicated concentration (maximum activity) (EAAT2 [1]; [3]): 2.4 ± 0.2 (10 μM) fold

CN(C(=O)COc1ccc(-c2ccccn2)nn1)c1ccccc1
Fold increase for EAAT2 at indicated concentration (maximum activity) (EAAT2 [1]; [3]): 2.2 ± 0.3 (10 μM) fold

O=C(COc1ccc(-c2ccccn2)nn1)N1CCCCC1
Fold increase for EAAT2 at indicated concentration (maximum activity) (EAAT2 [1]; [3]): 2.6 ± 0.1 (10 μM) fold

CN(C)C(=O)COc1ccc(-c2ccccn2)nn1
Fold increase for EAAT2 at indicated concentration (maximum activity) (EAAT2 [1]; [5]): 2.9 ± 0.2 (5 μM) fold

O=C(Nc1ccc(-c2ccccn2)nn1)c1cncs1
Fold increase for EAAT2 at indicated concentration (maximum activity) (EAAT2 [1]; [5]): 1.9 ± 0.1 (5 μM) fold

c1ccc(-c2ccc(OCc3nccs3)nn2)nc1
Fold increase for EAAT2 at indicated concentration (maximum activity) (EAAT2 [1]; [3]): 2.2 ± 0.3 (10 μM) fold

Cn1cncc1COc1ccc(-c2ccccn2)nn1
Fold increase for EAAT2 at indicated concentration (maximum activity) (EAAT2 [1]; [5]): 1.7 ± 0.1 (5 μM) fold

Cn1ccnc1COc1ccc(-c2ccccn2)nn1
Fold increase for EAAT2 at indicated concentration (maximum activity) (EAAT2 [1]; [5]): 1.9 ± 0.1 (5 μM) fold

CC(Oc1ccc(-c2ccccn2)nn1)c1ccccn1 (centres unmarked)
Fold increase for EAAT2 at indicated concentration (maximum activity) (EAAT2 [1]; [5]): 1.7 ± 0.1 (5 μM) fold

CN(C)CCNc1ccc(-c2ccccn2)nn1
Fold increase for EAAT2 at indicated concentration (maximum activity) (EAAT2 [1]; [5]): 2.4 ± 0.2 (5 μM) fold

c1ccc(CNc2ccc(-c3ccccn3)nn2)cc1
Fold increase for EAAT2 at indicated concentration (maximum activity) (EAAT2 [1]; [3]): 3.1 ± 0.3 (10 μM) fold

c1ccc(-c2ccc(NCCCn3ccnc3)nn2)nc1
Fold increase for EAAT2 at indicated concentration (maximum activity) (EAAT2 [1]; [5]): 3.3 ± 0.2 (5 μM) fold

O=C(Nc1ccc(-c2ccccn2)nn1)c1ccc(F)cc1 [Example 4, 4-Fluoro-N-(6-(pyridin-2-yl)pyridazin-3-yl)benzamide]
EAAT2 protein levels in mouse brain (EAAT2 [2]): dose-dependently increased EAAT2 levels

O=C(Nc1ccc(-c2ccccn2)nn1)c1ccc(F)cc1 [drawing 110]
Fold increase for EAAT2 at indicated concentration (maximum activity) (EAAT2 [1]; [6]): 2.5 ± 0.3 (0.25 μM) fold

CNC(=O)COc1ccc(-c2ccccn2)nn1 [drawing 129]
Fold increase for EAAT2 at indicated concentration (maximum activity) (EAAT2 [1]; [6]): 2.3 ± 0.1 (0.25 μM) fold

CNC(=O)COc1ccc(-c2ccccn2)nn1 [drawing 130]
Fold increase for EAAT2 at indicated concentration (maximum activity) (EAAT2 [1]; [3]): 1.8 ± 0.1 (10 μM) fold
